Assays:
[1] = test system: Class-lla HDAC; assay: Cell-based deacetylase assay in HT-29 cells, class-IIa selective substrate Boc-Lys-TFA; details: whole-cell assay, 100 μM Boc-Lys-TFA (class-IIa selective substrate), 3 h at 37° C.
Protocol: Cell-based deacetylase assay. […] HT-29 cells (obtained from ATCC) with the addition of either 100 μM Boc-Lys-TFA (class-IIa selective substrate) or 200 μM Boc-Lys-Ac (class-I/IIb selective substrate) were plated into 96 well plates at 200,000 cells/well in 45 uL cellular assay buffer (RPMI without phenol red, 0.1% Fetal Bovine Serum) and were incubated for 3 h at 37° C. The deacetylation achieved by the addition of 50 uL HDAC developer solution (2.5 mg/ml trypsin in DMEM without Fetal Bovine Serum and 10% tween 80) for a further 1 h to sensitize the substrate and to lyse the cells. Fluorescent counts were read with microplate reader at an excitation wavelength of 360 nm and detection of emitted light of 460 nm.

[2] = test system: Class-I HDAC; assay: Cell-based deacetylase assay in HT-29 cells, class-I/IIb selective substrate Boc-Lys-Ac; details: whole-cell assay, 200 μM Boc-Lys-Ac (class-I/IIb selective substrate), 3 h at 37° C.
Protocol: Cell-based deacetylase assay. The cell-based assay was conducted similar to the previous work (Lobera M 2013; Luckhurst C A 2019) Briefly, compounds were diluted in 5 uL DMSO (11-point concentration curve, 5% final DMSO) and were added to 96 wells with positive (5 μM Trichostatin A (TSA)) and negative control (5 uL DMSO) wells. HT-29 cells (obtained from ATCC) with the addition of either 100 μM Boc-Lys-TFA (class-IIa selective substrate) or 200 μM Boc-Lys-Ac (class-I/IIb selective substrate) were plated into 96 well plates at 200,000 cells/well in 45 uL cellular assay buffer (RPMI without phenol red, 0.1% Fetal Bovine Serum) and were incubated for 3 h at 37° C. The deacetylation achieved by the addition of 50 uL HDAC developer solution (2.5 mg/ml trypsin in DMEM without Fetal Bovine Serum and 10% tween 80) for a further 1 h to sensitize the substrate and to lyse the cells. Fluorescent counts were read with microplate reader at an excitation wavelength of 360 nm and detection of emitted light of 460 nm.

[3] = test system: class-lla HDACs; assay: In vivo microPET imaging of healthy rats (biodistribution, self-blocking with cold TMP195); set-up: species or system Sprague Dawley rats; details: for biodistribution / uptake in brain regions: rat brain PET
Protocol: Sprague Dawley rats (200-250 g, N=3,) were anesthetized with 3% isoflurane in oxygen and maintained at 2% isoflurane in oxygen throughout the imaging studies. Anesthetized rat was placed in the uPET (Siemens, Knoxville, TN) with the skull positioned in the center of the field of view. The tracer (500-700 μCi/animal) was administered intravenously into each Rat (n=3 per group) in a total volume 0.5-1.0 ml solution. Dynamic PET images were obtained over 60 minutes. Images were reconstructed with attenuation correction using an ordered subset expectation maximization (OSEM2D) algorithm with 16 subsets and 4 iterations.
Dynamic PET images were analyzed with Inveon Research Workplace 4.0 (Siemens, Knoxville, TN) and AMIDE software using manual segmentation of regions of interest (ROI), were drawn over ROI on the decay-corrected coronal images. The radioactivity accumulation (tracer uptake) within the ROI were obtained as percentage of the injected dose (ID) per gram of tissue (% ID/g). The time-activity curve (TAC) was generated from the region of interest (ROI) by plotting the radioactivity/cc vs time.
(§1) Anesthetized Sprague Dawley rats (200-250 g, N=6) were placed in the Inveon uPET (Siemens, Knoxville, TN) in the supine position with the skull positioned in the center of the field of view. [^18F]-NT160 was formulated in ethanol:polysorbate 80:saline (10:10:80%) and it was stable in this formulation at 37° C. at least for 4 hours. [^18F]-NT160 (18.5-25.9 MBq/animal) was administered via the tail-vein injection in a total volume 0.5-1.0 ml. Dynamic PET images were obtained over 60 minutes followed by CT imaging (15 min scan). Images were reconstructed with attenuation correction using an ordered subset expectation maximization (OSEM2D) algorithm with 16 subsets and 4 iterations. PET image analysis was performed using the AMIDE software by using manual segmentation of regions of interest (ROI), including: whole brain, cortex, hippocampus, thalamus, cerebellum, and brain stem. Rat Brain Atlas was used for alignment and identification of specific anatomical markers of the brain. The time-activity curve (TAC) was generated from the region of interest (ROI) by plotting the radioactivity/cc vs time. Levels of accumulation of the radiotracer in tissues were expressed as standard uptake values (SUV) that were calculated for the regions of interest (ROI) using the AMIDE software. The SUV is defined as the ratio of the tissue radioactivity concentration C (e.g. expressed as Bq/g tissue) at given time point post injection T, and the injected dose (e.g. in Bq, decay-corrected to the same time T), and normalized by the body weight in grams. GraphPad Prism (Graph Pad Software La Jolla, CA) was used for image data analysis. [^18F]-NT2-160 was also prepared by the same or similar procedure.

[4] = Stability of the tracer in its injection formulation; type: physicochemical; details: ethanol:polysorbate 80:saline (10:10:80%), 37° C.
Protocol: as §1, with “PET image analysis was performed using the AMIDE software by using manual segmentation of regions of interest (ROI), including: whole brain, cortex, hippocampus, thalamus, cerebellum, and brain stem. Rat Brain Atlas was used for alignment and identification of specific anatomical markers of the brain.” left out, “GraphPad Prism (Graph Pad Software La Jolla, CA) was used for image data analysis. [^18F]-NT2-160 was also prepared by the same or similar procedure.” left out

[5] = Partition coefficient, octanol/PBS shake flask method; type: physicochemical; details: phosphate buffer pH 7.4
Protocol: The log P was determined by partitioning the tracer between octanol and phosphate buffer at pH 7.4 and measuring the concentration of the tracer in each layer. The radioactivity of each layer is counted using gamma-counter. The partition coefficient (P) is calculated as [radioactivity (cpm/ml) in 1-octanol)]/[(radioactivity (cpm/ml) in phosphate buffer pH 7.4].

[6] = rat, co-administered TMP195 2 mg/kg

SMILES | IC50 [1] [nM] | IC50 [2] [µM] | further results
CC(C)(NCc1ccccc1)C(=O)CNC(=O)c1ccc(-c2noc(C(F)(F)F)n2)cc1 [NT2-44] | 768 ± 190 | > 15 | –
C[C@@H](NC(=O)c1ccc(-c2noc(C(F)(F)F)n2)cc1)C(=O)NCc1ccccc1 [NT2-67] | 953 | > 15 | –
COC[C@@H](NC(=O)c1ccc(-c2noc(C(F)(F)F)n2)cc1)C(=O)NCc1ccc(F)cc1 [NT2-156] | 233 ± 110 | > 15 | –
O=C(NC1CCN(Cc2ccccc2)C1)c1ccc(-c2noc(C(F)(F)F)n2)cc1 (stereo not shown) [NT2-160] | – | > 20 | –
O=C(NC1CCN(c2ccccc2)C1)c1ccc(-c2noc(C(F)(F)F)n2)cc1 (stereo not shown) [NT2-174] | > 20000 | > 50 | –
O=C(NC1CCCN(Cc2ccccc2)C1)c1ccc(-c2noc(C(F)(F)F)n2)cc1 (stereo not shown) [NT2-190] | > 10000 | > 50 | –
CC(CN(C)Cc1ccccc1)NC(=O)c1ccc(-c2noc(C(F)(F)F)n2)cc1 (stereo not shown) [NT2-191] | – | > 50 | –
C[C@H](CN(C)Cc1ccc(F)cc1)NC(=O)c1ccc(-c2noc(C(F)(F)F)n2)cc1 [NT3-11D] | 59 ± 16 | > 15 | –
C[C@@H](CN1CC[C@H](c2ccccc2)C1)NC(=O)c1ccc(-c2noc(C(F)(F)F)n2)cc1 [NT3-16D] | 5 | > 25 | –
O=C(NC1CCN(Cc2ccc(I)cc2)C1)c1ccc(-c2noc(C(F)(F)F)n2)cc1 (stereo not shown) [NT3-39] | 295 | > 50 | –
O=C(NC1CCN(Cc2ccc(F)cc2)C1)c1ccc(-c2noc(C(F)(F)F)n2)cc1 (stereo not shown) [NT3-40] | 142 | > 20 | –
C[C@H](NC(=O)c1ccc(-c2noc(C(F)(F)F)n2)cc1)C(=O)N1CC[C@H](c2ccccc2)C1 [NT3-52B] | > 1000 | > 50 | –
CN1CCC(NC(=O)c2ccc(-c3noc(C(F)(F)F)n3)cc2F)C1 (stereo not shown) [NT3-75] | 72 | > 3 | –
C[C@H](CN(C)Cc1ccccc1)NC(=O)c1ccc(-c2noc(C(F)(F)F)n2)cc1F [NT3-76] | 32 | > 5 | –
O=C(NC1CCN(Cc2ccccc2F)C1)c1ccc(-c2noc(C(F)(F)F)n2)cc1F (stereo not shown) [NT3-77A] | 179 | > 10 | –
O=C(NC1CCN(Cc2cccc(F)c2)C1)c1ccc(-c2noc(C(F)(F)F)n2)cc1F (stereo not shown) [NT3-77B] | 195 | > 10 | –
O=C(NC1CCN(Cc2ccc(F)cc2)C1)c1ccc(-c2noc(C(F)(F)F)n2)cc1F (stereo not shown) [NT3-77C] | 173 | > 10 | –
O=C(NC1CCN(Cc2ccccc2)C1)c1ccc(-c2noc(C(F)(F)F)n2)cc1F (stereo not shown) [NT3-77] | 152 | > 10 | –
CCN1CCC(NC(=O)c2ccc(-c3noc(C(F)(F)F)n3)cc2F)C1 (stereo not shown) [NT3-81] | 137 | > 5 | –

SMILES | IC50 [1] [nM] | IC50 [2] [µM] | further results
CCN1CCC(NC(=O)c2ccc(-c3noc(C(F)(F)F)n3)cc2)C1 (stereo not shown) [NT3-83] | 91 | > 9 | –
C[C@H](CN(C)Cc1ccccc1)NC(=O)c1ccc(-c2noc(C(F)(F)Cl)n2)cc1 [NT3-89B] | > 2000 | > 2 | –
CCN1CC[C@@H](NC(=O)c2ccc(-c3noc(C(F)(F)Cl)n3)cc2)C1 [NT3-92] | > 20000 | > 50 | –
O=C(NC1CCN(CCc2ccccc2F)C1)c1ccc(-c2noc(C(F)(F)F)n2)cc1 (stereo not shown) [NT3-102C] | > 10000 | > 50 | –
O=C(NC1CCN(CCc2ccccc2)C1)c1ccc(-c2noc(C(F)(F)F)n2)cc1 (stereo not shown) [NT3-106C] | > 10000 | > 50 | –
CN(Cc1ccccc1)C(=O)C(C)(C)CNC(=O)c1cccc(-c2noc(C(F)(F)F)n2)c1 [NT3-118] | > 50000 | > 50 | –
CN(Cc1ccccc1)C(=O)C(C)(C)CNC(=O)c1ccc(-c2noc(C(F)(F)F)n2)cc1 [NT3-119] | 933 ± 260 | > 15 | –
O=C(NC1CCN(CCF)C1)c1ccc(-c2noc(C(F)(F)F)n2)cc1 (stereo not shown) [NT3-123] | > 10000 | > 50 | –
O=C(NC1CCN(Cc2ccccc2I)C1)c1ccc(-c2noc(C(F)(F)F)n2)cc1 (stereo not shown) [NT3-127B] | 1000 | > 50 | –
O=C(NC1CCN(Cc2ccccc2F)C1)c1ccc(-c2noc(C(F)(F)F)n2)cc1 (stereo not shown) [NT3-132B] | 300 | > 50 | –
CC(C)(CNC(=O)c1ccc(-c2noc(C(F)(F)F)n2)cc1)c1coc(-c2ccccc2)n1 [NT-134] | > 5000 | > 15 | –
CN(Cc1ccccc1)C(=O)CCNC(=O)c1ccc(-c2noc(C(F)(F)F)n2)cc1 [NT-174] | 905 ± 220 | > 15 | –
CN(Cc1ccccc1)C(=O)CCNC(=O)c1cccc(-c2noc(C(F)(F)F)n2)c1 [NT-175] | > 50000 | > 50 | –
COC[C@@H](NC(=O)c1ccc(-c2noc(C(F)(F)F)n2)cc1)C(=O)NCc1ccccc1 [NT-176] | 537 ± 150 | > 15 | –
COC[C@@H](NC(=O)c1ccc(-c2noc(C(F)(F)F)n2)nc1)C(=O)NCc1ccccc1 [NT-192] | 1710 ± 330 | > 15 | –
O=C(NC1CCN(Cc2ccccc2)C1)c1ccc(-c2noc(C(F)(F)[18F])n2)cc1 (stereo not shown) [[^18F]-NT2-160] | – | – | biodistribution / uptake in brain regions [3]: heterogenous
C[C@H](CN(C)Cc1ccccc1)NC(=O)c1ccc(-c2noc(C(F)(F)[18F])n2)cc1 [[^18F]-NT160] | – | – | stable in formulation [4]: ≥ 4 h
CC(C)(CNC(=O)c1cccc(-c2noc(C(F)(F)[18F])n2)c1)c1coc(-c2ccccc2)n1 [^18F-NT57] | – | – | logD [5]: > 6; tracer uptake in the harderian gland ([3]; rat): neither specific nor unique; biodistribution / uptake in brain regions [3]: heterogeneous; uptake in the wrist ([3]; rat, baseline and blocking with TMP195): intense and blockable; uptake in the brown fat adipose tissues (BATs) ([3]; rat, cervical and interscapular BAT, 60 min): intense and increased uptake; brain uptake with cold dose of TMP195 vs baseline (self-blocking) [3, 6]: reduced; tracer uptake in BATs with cold dose of TMP195 (blocking) [3, 6]: reduced; accumulation in the liver ([3]; rat, dynamic PET over 60 min): accumulated heavily; clearance from most normal tissues (heart, brain, muscle) ([3]; rat, dynamic PET over 60 min): rapid clearance; peak uptake in the brain ([3]; rat, intravenous tracer, dynamic PET over 60 min): ~1 % ID/g; tracer uptake in the muscle ([3]; rat, not affected by blocking): low and nonspecific

Reference: patent publication US20240327361A1, “RADIOLABELED COMPOSITIONS AND METHODS OF USE THEREOF” (The Research Foundation for the State University of New York, priority 2021, published 2024)
